Where a name gives a salt, the structure may show the parent alone.
What was measured:
human full-lengt MKNK1 = target: T1, human full-lengt MKNK1 (Homo sapiens, UniProt Q9BUB5, T385D); experiment: MKNK1 kinase assay (MKNK1 TR-FRET assay); type: biochemical; settings: ATP final conc. 10 μM, 15 min preincubation, 45 min reaction at 22° C.
T1 construct: purchased Carna Biosciences 02-145; host or cells: insect cells (baculovirus expression system)
Excerpt: MKNK1-inhibitory activity of compounds of the present invention was quantified employing the MKNK1 TR-FRET assay as described in the following paragraphs.
(§1) A recombinant fusion protein of Glutathione-S-Transferase (GST, N-terminally) and human full-lengt MKNK1 (amino acids 1-424 and T344D of accession number BAA 19885.1), expressed in insect cells using baculovirus expression system and purified via glutathione sepharose affinity chromatography, was purchased from Carna Biosciences (product no 02-145) and used as enzyme. As substrate for the kinase reaction the biotinylated peptide biotin-Ahx-IKKRKLTRRKSLKG (C-terminus in amide form) was used which can be purchased e.g. form the company Biosyntan (Berlin-Buch, Germany).
(§2) For the assay 50 nL of a 100 fold concentrated solution of the test compound in DMSO was pipetted into a black low volume 384 well microtiter plate (Greiner Bio-One, Frickenhausen, Germany), 2 μL of a solution of MKNK1 in aqueous assay buffer [50 mM HEPES pH 7.5, 5 mM magnesium chloride, 1.0 mM dithiothreitol, 0.005% (v/v) Nonidet-P40 (Sigma)] was added and the mixture was incubated for 15 min at 22° C. to allow pre-binding of the test compounds to the enzyme before the start of the kinase reaction. Then the kinase reaction was started by the addition of 3 μL of a solution of adenosine-tri-phosphate (ATP, 16.7 μM=>final conc. in the 5 μL assay volume is 10 μM) and substrate (0.1 μM=>final conc. in the 5 μL assay volume is 0.06 μM) in assay buffer and the resulting mixture was incubated for a reaction time of 45 min at 22° C. The concentration of MKNK1 was adjusted depending of the activity of the enzyme lot and was chosen appropriate to have the assay in the linear range, typical concentrations were in the range of 0.05 μg/ml. The reaction was stopped by the addition of 5 μL of a solution of TR-FRET detection reagents (5 nM streptavidine-XL665 [Cisbio Bioassays, Codolet, France] and 1 nM anti-ribosomal protein S6 (pSer236)-antibody from Invitrogen [#44921G] and 1 nM LANCE EU-W1024 labeled ProteinG [Perkin-Elmer, product no. AD0071]) in an aqueous EDTA-solution (100 mM EDTA, 0.1% (w/v) bovine serum albumin in 50 mM HEPES pH 7.5).
The resulting mixture was incubated for 1 h at 22° C. to allow the formation of complex between the phosphorylated biotinylated peptide and the detection reagents. Subsequently the amount of phosphorylated substrate was evaluated by measurement of the resonance energy transfer from the Eu-chelate to the streptavidine-XL. Therefore, the fluorescence emissions at 620 nm and 665 nm after excitation at 350 nm were measured in a TR-FRET reader, e.g. a Rubystar (BMG Labtechnologies, Offenburg, Germany) or a Viewlux (Perkin-Elmer). The ratio of the emissions at 665 nm and at […] was taken as the measure for the amount of phosphorylated substrate. The data were normalised (enzyme reaction without inhibitor=0% inhibition, all other assay components but no enzyme=100% inhibition). Usually the test compounds were tested on the same microtiterplate in 11 different concentrations in the range of 20 μM to 0.1 nM (20 μM, 5.9 μM, 1.7 μM, 0.51 μM, 0.15 μM, 44 nM, 13 nM, 3.8 nM, 1.1 nM, 0.33 nM and 0.1 nM, the dilution series prepared separately before the assay on the level of the 100 fold concentrated solutions in DMSO by serial 1:3.4 dilutions) in duplicate values for each concentration and […] were calculated by a 4 parameter fit.

human full-length MKNK1 = target: T2, human full-length MKNK1 (Homo sapiens, UniProt Q9BUB5, T385D); experiment: MKNK1 kinase high ATP assay (TR-FRET-based); type: biochemical; settings: ATP final conc. 2 mM, 15 min preincubation, 30 min reaction at 22° C.
T2 construct: purchased Carna Biosciences 02-145; host or cells: insect cells (baculovirus expression system)
T2 sequence (Q9BUB5 1-424 isoform Q9BUB5-2 T344D): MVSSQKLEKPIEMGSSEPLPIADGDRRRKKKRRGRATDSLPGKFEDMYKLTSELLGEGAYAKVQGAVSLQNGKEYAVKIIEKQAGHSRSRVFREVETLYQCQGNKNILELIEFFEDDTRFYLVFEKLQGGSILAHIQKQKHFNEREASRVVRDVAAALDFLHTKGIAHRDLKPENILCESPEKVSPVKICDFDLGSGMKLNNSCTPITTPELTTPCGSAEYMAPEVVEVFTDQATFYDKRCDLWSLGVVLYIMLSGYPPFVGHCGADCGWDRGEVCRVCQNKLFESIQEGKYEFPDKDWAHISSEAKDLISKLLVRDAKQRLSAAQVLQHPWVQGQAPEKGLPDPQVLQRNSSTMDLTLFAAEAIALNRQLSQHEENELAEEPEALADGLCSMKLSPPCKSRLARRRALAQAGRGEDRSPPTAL
Procedure: MKNK1 Kinase High ATP Assay
MKNK1-inhibitory activity at high ATP of compounds of the present invention after their preincubation with MKNK1 was quantified employing the TR-FRET-based MKNK1 high ATP assay as described in the following paragraphs.
as §1, with “human full-length” for “human full-lengt”, “was used,” for “was used”, “e.g. from” for “e.g. form”
as §2, with “3.3 mM=>final” for “16.7 μM=>final”, “2 mM)” for “10 μM)”, “30” for “45”, “0.003 μg/mL.” for “0.05 μg/ml.”
The resulting mixture was incubated for 1 h at 22° C. to allow the formation of complex between the phosphorylated biotinylated peptide and the detection reagents. Subsequently the amount of phosphorylated substrate was evaluated by measurement of the resonance energy transfer from the Eu-chelate to the streptavidine-XL. Therefore, the fluorescence emissions at 620 nm and 665 nm after excitation at 350 nm were measured in a TR-FRET reader, e.g. a Rubystar (BMG Labtechnologies, Offenburg, Germany) or a Viewlux (Perkin-Elmer). The ratio of the emissions at 665 nm and at […] was taken as the measure for the amount of phosphorylated substrate. The data were normalised (enzyme reaction without inhibitor=0% inhibition, all other assay components but no enzyme=100% inhibition).

T1 sequence (Q9BUB5 1-424 isoform Q9BUB5-2 T344D): as above

Row | Compound | IC50 (human full-lengt MKNK1) | IC50 (human full-length MKNK1)
1 | COc1nccc2oc(-c3cnc4ccc(OC[C@@H](N)c5ccccc5)nn34)cc12 [Example 4, (1S)-2-{[3-(4-Methoxyfuro[3,2-c]pyridin-2-yl)imidazo[1,2-b]pyridazin-6-yl]oxy}-1-phenylethanamine] | 20 nM | 91 nM
2 | CC(C)Oc1nccc2oc(-c3cnc4ccc(OC[C@H](C)N)nn34)cc12 [Example 19, (2S)-1-({3-[4-(Propan-2-yloxy)furo[3,2-c]pyridin-2-yl]imidazo[1,2-b]pyridazin-6-yl}oxy)propan-2-amine] | 17 nM | 34 nM
3 | COc1nccc2oc(-c3cnc4ccc(OC(CN)Cc5ccccc5)nn34)cc12 (stereo not drawn) [Example 33, 2-{[3-(4-Methoxyfuro[3,2-c]pyridin-2-yl)imidazo[1,2-b]pyridazin-6-yl]oxy}-3-phenylpropan-1-amine] | 99 nM | 117 nM
4 | C[C@H](N)COc1ccc2ncc(-c3cc4c(OCC(C)(C)C)nccc4o3)n2n1 [Example 34, (2S)-1-({3-[4-(2,2-Dimethylpropoxy)furo[3,2-c]pyridin-2-yl]imidazo[1,2-b]-pyridazin-6-yl}oxy)propan-2-amine] | 5 nM | 15 nM
5 | COc1nccc2oc(-c3cnc4ccc(OC[C@H](N)COCc5ccccc5)nn34)cc12 [Example 11, (2R)-1-(Benzyloxy)-3-{[3-(4-methoxyfuro[3,2-c]pyridin-2-yl)imidazo[1,2-b]-pyridazin-6-yl]oxy}propan-2-amine] | 17 nM | 59 nM

The next lines start with the values.

Row | IC50 (human full-lengt MKNK1) | IC50 (human full-length MKNK1) | Compound
6 | 10 nM | 31 nM | COc1nccc2oc(-c3cnc4ccc(O[C@H]5CC[C@H](N)CC5)nn34)cc12 [Example 21, trans-4-{[3-(4-Methoxyfuro[3,2-c]pyridin-2-yl)imidazo[1,2-b]pyridazin-6-yl]-oxy}cyclohexanamine salt with formic acid]
7 | 5 nM | 34 nM | N[C@H]1C[C@H](Oc2ccc3ncc(-c4cc5cnccc5o4)n3n2)C1 [Example 14, trans-3-{[3-(Furo[3,2-c]pyridin-2-yl)imidazo[1,2-b]pyridazin-6-yl]oxy}cyclobutanamine salt with formic acid]
8 | 8 nM | 19 nM | COc1nccc2oc(-c3cnc4ccc(OCC(C)CN)nn34)cc12 (stereo not drawn) [Example 16, 3-{[3-(4-Methoxyfuro[3,2-c]pyridin-2-yl)imidazo[1,2-b]pyridazin-6-yl]oxy}-2-methylpropan-1-amine]
9 | 8 nM | 23 nM | CCOc1nccc2oc(-c3cnc4ccc(OC[C@@H](C)N)nn34)cc12 [Example 38, (2R)-1-{[3-(4-Ethoxyfuro[3,2-c]pyridin-2-yl)imidazo[1,2-b]pyridazin-6-yl]oxy}-propan-2-amine]

From patent US9643974B2, “Amino-substituted imidazopyridazines” (Bayer Intellectual Property GmbH, priority 2011, dated 2017)
